Consider 1 compound from paper doi:10.1101/2020.07.09.196246v1 (biorxiv, 2020).

Test [1] addresses T1, zebrafish α9α10 (1:2) nAChR (Danio rerio, UniProt A0A8M9PIT7+Q1LY90).
T1 sequence (A0A8M9PIT7 20-580): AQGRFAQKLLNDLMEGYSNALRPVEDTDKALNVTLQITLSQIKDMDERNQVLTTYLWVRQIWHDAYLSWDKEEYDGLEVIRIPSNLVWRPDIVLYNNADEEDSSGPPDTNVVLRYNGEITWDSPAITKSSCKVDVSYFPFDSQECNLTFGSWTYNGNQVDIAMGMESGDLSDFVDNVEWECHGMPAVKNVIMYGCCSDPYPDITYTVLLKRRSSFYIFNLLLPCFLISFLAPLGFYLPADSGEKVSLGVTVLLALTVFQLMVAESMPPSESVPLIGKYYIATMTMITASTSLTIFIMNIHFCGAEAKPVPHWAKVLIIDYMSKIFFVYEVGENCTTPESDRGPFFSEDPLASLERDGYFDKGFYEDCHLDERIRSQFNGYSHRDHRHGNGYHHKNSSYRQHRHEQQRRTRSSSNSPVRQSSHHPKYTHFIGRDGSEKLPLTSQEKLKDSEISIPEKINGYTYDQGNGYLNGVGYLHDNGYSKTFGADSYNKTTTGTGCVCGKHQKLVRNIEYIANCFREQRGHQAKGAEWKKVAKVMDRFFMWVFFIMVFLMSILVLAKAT
T1 sequence (Q1LY90 26-527): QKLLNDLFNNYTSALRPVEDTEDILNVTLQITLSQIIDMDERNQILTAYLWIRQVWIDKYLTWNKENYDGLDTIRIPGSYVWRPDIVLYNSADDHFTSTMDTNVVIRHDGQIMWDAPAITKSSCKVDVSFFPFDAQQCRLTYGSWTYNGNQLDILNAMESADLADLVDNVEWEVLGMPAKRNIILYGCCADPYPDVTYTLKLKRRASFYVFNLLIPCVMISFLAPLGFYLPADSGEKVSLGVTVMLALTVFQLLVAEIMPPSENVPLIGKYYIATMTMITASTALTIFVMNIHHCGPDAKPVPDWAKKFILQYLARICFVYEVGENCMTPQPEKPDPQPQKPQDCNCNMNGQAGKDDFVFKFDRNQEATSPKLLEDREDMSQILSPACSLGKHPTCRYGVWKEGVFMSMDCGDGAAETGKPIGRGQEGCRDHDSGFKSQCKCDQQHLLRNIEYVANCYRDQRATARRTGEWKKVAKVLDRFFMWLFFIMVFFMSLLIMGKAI
Description: two-electrode voltage clamp, peak inward current, Hill fit. It is filed as cell-based.

The target of test [2] is T2, zebrafish α9 nAChR (homomeric) (Danio rerio, UniProt A0A8M9PIT7).
T2 sequence (A0A8M9PIT7 20-580): T1 sequence (A0A8M9PIT7 20-580)
Described as above. In kind it is cell-based.

Molecules are shown by their SMILES.

The term EC50 denotes the concentration giving half of the maximal effect. Low readings indicate a more potent agent, high ones a less potent agent. As for `CC(=O)OCC[N+](C)(C)C` [ACh, acetylcholine], the EC50 came to 437 µM in test [1] and 11.7 µM in test [2].
